# Patent US20090226368A1, “Androgen-Receptor (AR) Ligands for Use in the Treatment and Diagnosis of AR-Related Pathologies” (priority 2005, published 2009)
# Legend:
# human AR recombinant = molecular target: T1, human AR recombinant (Homo sapiens, UniProt P10275); assay: Relative Binding Affinity (RBA) assay, competitive binding with [3H]R1881; details: against [3H]R1881; R1881 standard = 100 by definition
# T1 construct: purchased Pan-Vera
# T1 sequence (P10275 1-920): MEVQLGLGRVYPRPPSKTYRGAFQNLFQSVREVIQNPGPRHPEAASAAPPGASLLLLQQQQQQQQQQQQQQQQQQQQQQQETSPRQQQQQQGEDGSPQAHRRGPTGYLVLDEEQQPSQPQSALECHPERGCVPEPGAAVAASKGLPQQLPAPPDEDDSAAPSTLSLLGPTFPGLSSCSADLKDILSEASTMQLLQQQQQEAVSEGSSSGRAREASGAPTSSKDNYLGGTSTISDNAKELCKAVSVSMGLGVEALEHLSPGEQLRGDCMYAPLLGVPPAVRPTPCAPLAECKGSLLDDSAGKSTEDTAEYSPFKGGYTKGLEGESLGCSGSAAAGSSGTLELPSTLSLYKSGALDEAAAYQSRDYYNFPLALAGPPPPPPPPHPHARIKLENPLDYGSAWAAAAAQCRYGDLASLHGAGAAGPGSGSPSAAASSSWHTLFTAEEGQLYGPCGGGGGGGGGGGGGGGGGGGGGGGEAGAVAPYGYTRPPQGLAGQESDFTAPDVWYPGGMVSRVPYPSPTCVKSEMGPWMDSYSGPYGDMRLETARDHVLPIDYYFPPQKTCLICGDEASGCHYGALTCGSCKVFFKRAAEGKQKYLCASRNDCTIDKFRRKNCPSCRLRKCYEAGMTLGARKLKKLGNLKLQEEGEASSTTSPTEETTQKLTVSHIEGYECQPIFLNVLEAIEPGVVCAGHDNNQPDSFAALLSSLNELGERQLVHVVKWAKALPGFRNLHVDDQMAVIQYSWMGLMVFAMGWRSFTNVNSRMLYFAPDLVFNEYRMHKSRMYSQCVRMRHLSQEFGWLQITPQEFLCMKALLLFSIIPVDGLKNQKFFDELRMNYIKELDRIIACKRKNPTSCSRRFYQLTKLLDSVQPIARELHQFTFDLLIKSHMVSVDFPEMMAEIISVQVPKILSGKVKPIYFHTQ
# Experimental: In order to measure the affinity of the compounds to the A, the compounds of the general Formula I, referred herein also as the AR ligands were tested in RBA (Relative Binding Affinity) assay, which is a competitive binding assay with ^3H—R1881, a high affinity AR binding ligand.
# RBA of androgens were measured against [^3H]R1881 in human AR recombinant (Pan-Vera). RBA values of the standards are 100 by definition (Brandes S. J., et al., Molecular Pharmacology; 1987; 32:391-400).
# [1] = In-vivo blood stability in nude mice; details: blood sampled after 0, 15, 30 and 35 minutes, phosphor-imagers
# Experimental: In-vivo blood stability experiments were performed for the ^11C-labeled (R)-Compound 3. The compound was injected into nude mice. Blood was sampled from the mice after 0, 15, 30 and 35 minutes. The labeled compound was extracted and evaluated using phosphor-imagers.
# [2] = Biodistribution in normal Lewis male rats, gamma-counter; type: in vivo; details: tail vein
# Experimental: The distribution of ^11C-labeled (R)-Compound 3 was measured in normal Lewis male rats which have been kept under SPF conditions. The labeled compound was injected through the tail vein of the rat. The rats were sacrificed 30, 60 and 90 minutes post injection, and prostate, blood, liver, muscle and kidney were removed and the activity in each organ was measured by gamma-counter (Tables 2A-D).
# [3] = PET-CT scan of distribution, bladder activity; type: in vivo; details: normal Lewis male rats, 40 minutes post injection
# Experimental: In some clinically used radio-tracers, such of FDG, activity is observed in the bladder, and mask the prostate. […] The distribution of the compound was scanned by human PET-CT. Counter dye was injected to the animal 10 minutes prior to the injection of the labeled compound and the exact location of the bladder was detected by CT. In accordance with the biodistribution experiment, activity was measured in the metabolic organs.
# LNCap cell lines = assay: Antagonist test, PSA secretion measured by ELISA; type: cell-based; details: 48 and 72 hours; for PSA secretion in comparison to the control: given alone, testosterone 100 nM, compound 0.2, 0.5 and 1 μM
# Experimental: PSA (Prostate Specific Antigen) is a secreted protein which is regulated by AR and is clinically used to detect prostate cancer in humans. LNCap cell lines were seeded in 24 wells (10^5 cells/well) in 10% FCS RPMI supplemented with sodium-pyruvate, pen/strep, L-glutamine, testosterone and insulin and grown for 24 hours. Then, the cells were washed 3 times with cold PBS and incubated in 10% FCS red-phenol-free RPMI. Testosterone (100 nM), ^18F-labeled (R)-Compound 3 (0.2, 0.5 and 1 μM) or both were added to the wells. Ethanol, which was used as the solvent of the testosterone and ^18F-labeled (R)-Compound 3, was added to the control wells in the same concentration.
# At 48 and 72 hours, a sample of the medium was taken and the PSA levels were measured by ELISA.
# [4] = Blood stability test, incubation in blood at 37° C.; type: in vitro ADME, human
# Experimental: Blood was taken in EDTA tubes in order to prevent coagulation. 550 μl of ^18F-labeled (R)-Compound 3 was added to 1 ml of blood, and put in a rotating incubator at 37° C. The incubation times were 0, 30, 60 and 90 minutes. After the incubation, the blood was centrifuged for 5 minutes at 3000 rpm. The plasma was centrifuged again for 5 minutes at 10600 g and the pellet was discarded. 400 μl of the resulting supernatant was added to 800 μl of 30% THF/CH3CN, vortexed for 30 seconds and centrifuged for 5 minute at 10600 g. The supernatant was filtered through 0.45 μm filter and injected to HPLC column. The column was eluted with a mixture of acetate buffer (pH 3.8) and acetonitrile (35:65) at flow rate of 3 ml/min. The HPLC eluent was monitored sequentially for UV absorbance at 254 nm and radioactivity. Each sample was done in duplicate.
# The same procedure was done with the ^11C-labeled (R)-Compound 3 after incubation of 0, 15, 30 and 45 minutes.
# Blood stability, which was measured by phosphor-imager, was done in the same procedure. The filtered samples were loaded on reverse phase TLC plates and exposed to the phosphor-imager plates for 1 hour.
# In the case of (R)-Compound 2, the incubation in the human blood sample was 0, 15, 30 and 45 minutes. The percent of extraction of the compound was around 40%.
# [5] = 30 minutes post injection, Table 2A
# [6] = 60 minutes post injection, Table 2B
# [7] = 60 minutes post injection, Table 2B (Rats 1, 2)
# [8] = 60 minutes post injection, Table 2C
# [9] = 60 minutes post injection, Table 2C (Rats 3, 4)
# [10] = 90 minutes post injection, Table 2D
# [11] = blood, 37° C., incubation 0, 30, 60 and 90 minutes, HPLC
structure (smiles),measurement,setting,value
"CC(C)(O)C(=O)Nc1ccc(F)c(C(F)(F)F)c1 [(R)-F-2, N-(4-fluoro-3-(trifluoromethyl)phenyl)-2-hydroxy-2-methylpropanamide]",RBA (%),human AR recombinant,0.027%
C[C@]1(O)CC[C@H]2[C@@H]3CCC4=CC(=O)CCC4=C3C=C[C@@]21C [Compound R1881],RBA (%),human AR recombinant,100%
CC(C)(O)C(=O)Nc1ccc([N+](=O)[O-])c(C(F)(F)F)c1 [Hydroxyflutamide],RBA (%),human AR recombinant,0.027%
CN([11CH3])C[C@@](C)(O)C(=O)Nc1ccc(F)c(C(F)(F)F)c1 [^11C-labeled (R)-Compound 3],metabolites in blood in vivo,[1],No metabolites were evident
same,"Biodistribution Blood, Av.",[2]; [5],0.76 % id/g
same,"Biodistribution Blood, Rat 1",[2]; [5],0.89 % id/g
same,"Biodistribution Blood, Rat 2",[2]; [5],0.63 % id/g
same,"Biodistribution Kidney, Av.",[2]; [5],12.43 % id/g
same,"Biodistribution Kidney, Rat 1",[2]; [5],15.57 % id/g
same,"Biodistribution Kidney, Rat 2",[2]; [5],9.29 % id/g
same,"Biodistribution Liver, Av.",[2]; [5],3.96 % id/g
same,"Biodistribution Liver, Rat 1",[2]; [5],4.26 % id/g
same,"Biodistribution Liver, Rat 2",[2]; [5],3.67 % id/g
same,"Biodistribution Muscle, Av.",[2]; [5],1.14 % id/g
same,"Biodistribution Muscle, Rat 1",[2]; [5],1.07 % id/g
same,"Biodistribution Muscle, Rat 2",[2]; [5],1.21 % id/g
same,"Biodistribution Prostate, Av.",[2]; [5],1.47 % id/g
same,"Biodistribution Prostate, Rat 1",[2]; [5],1.67 % id/g
same,"Biodistribution Prostate, Rat 2",[2]; [5],1.27 % id/g
same,"Biodistribution Blood, Rat 1",[2]; [6],0.54 % id/g
same,"Biodistribution Blood, Rat 2",[2]; [6],0.41 % id/g
same,"Biodistribution Kidney, Rat 1",[2]; [6],5.03 % id/g
same,"Biodistribution Kidney, Rat 2",[2]; [6],3.54 % id/g
same,"Biodistribution Liver, Rat 1",[2]; [6],8.79 % id/g
same,"Biodistribution Liver, Rat 2",[2]; [6],4.61 % id/g
same,"Biodistribution Muscle, Rat 1",[2]; [6],1.02 % id/g
same,"Biodistribution Muscle, Rat 2",[2]; [6],0.68 % id/g
same,"Biodistribution Prostate, Rat 1",[2]; [6],2.32 % id/g
same,"Biodistribution Prostate, Rat 2",[2]; [6],1.05 % id/g
same,"Biodistribution Blood, Av.",[2]; [7],0.48 % id/g
same,"Biodistribution Kidney, Av.",[2]; [7],4.29 % id/g
same,"Biodistribution Liver, Av.",[2]; [7],6.70 % id/g
same,"Biodistribution Muscle, Av.",[2]; [7],0.85 % id/g
same,"Biodistribution Prostate, Av.",[2]; [7],1.69 % id/g
same,"Biodistribution Blood, Rat 3",[2]; [8],0.28 % id/g
same,"Biodistribution Blood, Rat 4",[2]; [8],0.35 % id/g
same,"Biodistribution Kidney, Rat 3",[2]; [8],2.48 % id/g
same,"Biodistribution Kidney, Rat 4",[2]; [8],2.54 % id/g
same,"Biodistribution Liver, Rat 3",[2]; [8],5.30 % id/g
same,"Biodistribution Liver, Rat 4",[2]; [8],5.14 % id/g
same,"Biodistribution Muscle, Rat 3",[2]; [8],0.55 % id/g
same,"Biodistribution Muscle, Rat 4",[2]; [8],0.56 % id/g
same,"Biodistribution Prostate, Rat 3",[2]; [8],1.13 % id/g
same,"Biodistribution Prostate, Rat 4",[2]; [8],1.18 % id/g
same,"Biodistribution Blood, Av.",[2]; [9],0.32 % id/g
same,"Biodistribution Kidney, Av.",[2]; [9],2.51 % id/g
same,"Biodistribution Liver, Av.",[2]; [9],5.22 % id/g
same,"Biodistribution Muscle, Av.",[2]; [9],0.55 % id/g
same,"Biodistribution Prostate, Av.",[2]; [9],1.16 % id/g
same,"Biodistribution Blood, Av.",[2]; [10],0.36 % id/g
same,"Biodistribution Blood, Rat 1",[2]; [10],0.3 % id/g
same,"Biodistribution Blood, Rat 2",[2]; [10],0.42 % id/g
same,"Biodistribution Kidney, Av.",[2]; [10],2.46 % id/g
same,"Biodistribution Kidney, Rat 1",[2]; [10],2.24 % id/g
same,"Biodistribution Kidney, Rat 2",[2]; [10],2.68 % id/g
same,"Biodistribution Liver, Av.",[2]; [10],5.35 % id/g
same,"Biodistribution Liver, Rat 1",[2]; [10],5.16 % id/g
same,"Biodistribution Liver, Rat 2",[2]; [10],5.55 % id/g
same,"Biodistribution Muscle, Av.",[2]; [10],0.53 % id/g
same,"Biodistribution Muscle, Rat 1",[2]; [10],0.48 % id/g
same,"Biodistribution Muscle, Rat 2",[2]; [10],0.57 % id/g
same,"Biodistribution Prostate, Av.",[2]; [10],1.17 % id/g
same,"Biodistribution Prostate, Rat 1",[2]; [10],1.22 % id/g
same,"Biodistribution Prostate, Rat 2",[2]; [10],1.12 % id/g
same,activity in the bladder,[3],No activity was observed in the bladder
"C[C@]12CC[C@H]3[C@@H](CCC4=CC(=O)CC[C@@]43C)[C@@H]1CC[C@@H]2O [Testosterone, reference compound]",PSA secretion in comparison to the control,LNCap cell lines,increased PSA secretion
"C[C@](O)(CBr)C(=O)Nc1ccc(F)c(C(F)(F)F)c1 [(R)-F-1, (R)-3-Bromo-N-(4-fluoro-3-(trifluoromethyl)phenyl)-2-hydroxy-2-methyl-propanamide]",RBA (%),human AR recombinant,0.057%
"CN(C)C[C@@](C)(O)C(=O)Nc1ccc(C#N)c(C(F)(F)F)c1 [(R)-Compound 1, (R)-3-Dimethyl-N-(4-cyano-3-trifluoromethyl-phenyl)-2-hydroxy-2-methyl-propionamide]",RBA (%),human AR recombinant,0.030%
"CN(C)C[C@@](C)(O)C(=O)Nc1ccc([N+](=O)[O-])c(C(F)(F)F)c1 [(R)-Compound 2, (R)-3-Dimethyl-2-hydroxy-2-methyl-N-(4-nitro-3-trifluoromethyl-phenyl)-propionamide]",RBA (%),human AR recombinant,0.036%
same,percent of extraction,"[4]; human blood sample, incubation 0, 15, 30 and 45 minutes",around 40%
same,formation of metabolites,"[4]; human blood sample, incubation 0, 15, 30 and 45 minutes, phosphor-imager",no metabolites were evident
"CN(C)C[C@@](C)(O)C(=O)Nc1ccc(F)c(C(F)(F)F)c1 [(R)-Compound 3, (R)-3-Dimethyl-N-(4-fluoro-3-(trifluoromethyl)phenyl)-2-hydroxy-2-methyl-propanamide]",RBA (%),human AR recombinant,0.029%
CN(C)C[C@@](C)(O)C(=O)Nc1ccc([18F])c(C(F)(F)F)c1 [^18F-labeled (R)-Compound 3],metabolites in blood,[4]; [11],no metabolites were evident
same,percent of extraction,[4]; [11],39-43%
same,PSA secretion in comparison to the control,LNCap cell lines,reduced the PSA secretion
same,testosterone-induced secretion of PSA,"LNCap cell lines; together with testosterone 100 nM, 0.2, 0.5 and 1 μM, P<0.01",significantly reduced the testosterone-induced secretion of PSA
